Assay results from patent US20250074891A1 (Anaxis Pharma Pty Ltd., priority 2021, published 2025).

Columns and labels:
U937 cells = experiment: Counter screen: cell viability without TSQ cocktail (off-target effect); parameters: species or system human; settings: Homo sapiens, U-937, Table 38, read-out: Off-target effect (IC50 cell-based assay)
Description: Counter screen: In parallel, all compounds were tested for their ability to affect cell viability. The same U937 cells were treated with compound in DMSO without the TSQ cocktail. This counter screen enabled evaluation of off-target effects. In this case, cell viability was measured by CelltiterGlo.

[1] = test system: U937 human histiocytic leukemia cell line; experiment: Cellular assay: inhibition of TSQ induced necroptosis (CellTitre-Glo); settings: Homo sapiens, U-937; U937 cells, TSQ cocktail, 48 hours, Table 38; read-out: Inhibition of TSQ-induced necroptosis (IC50 cell-based assay)
Outline: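 U937 cells (20,000/well) pre-dosed with compound (10-point, 1:3 from 36 μM, 0.3% DMSO), then TSQ (hTNF-Fc 100 ng/ml, Smac mimetic 500 nM, Q-VD-OPh 10 μM) for 48 h at 37 °C. Viability by CellTiter-Glo luminescence, normalised to DMSO (100%) and DMSO+TSQ (0%); IC50 from 4-parameter fit.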

MLKL (full length) = MLKL (full length) (Homo sapiens (Human), UniProt Q8NB16); experiment: KINOMEscan binding assay, MLKL (full length); settings: Table 36
Description: Kinase assays. For most assays, kinase-tagged T7 phage strains were grown in parallel in 24-well blocks in an E. coli host derived from the BL21 strain. E. coli were grown to log-phase and infected with T7 phage from a frozen stock (multiplicity of infection=0.4) and incubated with shaking at 32° C. until lysis (90-150 minutes).
The Hill Slope was set to −1.

endogenous MLKL in U937 = endogenous MLKL in U937 (Homo sapiens (Human), UniProt Q8NB16); experiment: Degradation assay: degradation of endogenous MLKL in human cells (Western blot); settings: 24 h incubation, read-out: Degradation of endogenous MLKL in U937 (DC50 cell-based assay in μM)
Description: DEGRADATION ASSAY: Screening Compounds Procedure to Evaluate the Activity of Compounds in Degrading Endogenous MLKL in Human Cell
The human monocyte cell line (U937) was seeded on the day of the experiment in a 24-well plate at a cell density of 5*10^5 cells per well in a volume of 0.5 mL per well.
The compound was diluted in DMSO with a starting concentration of 10 mM and titrated stepwise with a dilution of 1:5. 0.5 μL of the compound dilution was added to the appropriate well to achieve a final concentration of 10; 2; 0.4; 0.08 and 0.016 μM. A DMSO only well was included as control.
The cells were incubated for 24 h in the presence of the compound at 37° C. and 10% CO2.
After the 24 h incubation period, the medium was removed and cells washed with 0.5 mL PBS. The cells were then lysed directly in 60 μL of 1×SDS gel loading buffer.
The cell lysate was heat-denatured at […] for 10 min. 10 μL of lysate per well were run on 18-well 4-15% Criterion TGX stain free gels (BIO-RAD). The proteins were then transferred onto nitrocellulose membrane with a wet transfer protocol in the Criterion Blotter (BIO-RAD).
Membranes were blocked with 5% skim milk in TBST. Primary antibody against MLKL (clone 3H1, MABC604 Merck) was used at 1:2000 dilution in TBST with 1% BSA and left shaking over night at 4° C. After washes with TBST, the membranes were incubated with goat anti-rat IgG HRP-conjugated antibody (Southern Biotech) in 1% skim milk TBST at 1:10000 dilution for 1 h at room temperature. After TBST washes the bands were imaged on the ChemiDoc MP Imaging Systm (BIO-RAD) with Immobilion Western Chemiluminescent HRP Substrate Forte (Millipore). The loading control GAPDH was probed for with rabbit anti-GAPDH (CST 14C10) at 1:2000 dilution in 1% BSA TBST over night at 4° C. TBST washes were followed by incubation with goat anti-rabbit IgG HRP-conjugated antibody (Southern Biotech) in 1% skim milk TBST at 1:10000 dilution for 1 h at room temperature followed by TBST washes. The signal was detected as described above.
The band intensity was measured in the ImageLab Software (BIO-RAD) and the MLKL values adjusted for loading with GAPDH. The percentage of degradation was calculated by normalizing the compound treated values to the DMSO only control.

Chain of endogenous MLKL in U937 (Q8NB16 whole entry): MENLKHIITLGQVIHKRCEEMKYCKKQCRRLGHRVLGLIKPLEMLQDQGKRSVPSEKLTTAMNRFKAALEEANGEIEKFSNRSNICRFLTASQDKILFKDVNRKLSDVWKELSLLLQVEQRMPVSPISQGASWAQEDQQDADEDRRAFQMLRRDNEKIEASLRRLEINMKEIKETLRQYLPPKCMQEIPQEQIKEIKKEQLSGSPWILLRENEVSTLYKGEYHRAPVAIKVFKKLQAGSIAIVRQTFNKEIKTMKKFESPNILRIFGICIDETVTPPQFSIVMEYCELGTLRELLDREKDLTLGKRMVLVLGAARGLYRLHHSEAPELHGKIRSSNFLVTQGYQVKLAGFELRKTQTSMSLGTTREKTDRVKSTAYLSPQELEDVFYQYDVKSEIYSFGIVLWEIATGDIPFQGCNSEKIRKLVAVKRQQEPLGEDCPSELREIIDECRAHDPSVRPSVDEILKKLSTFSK
Chain of MLKL (full length) (Q8NB16 whole entry): as above

Row | SMILES | IC50 (U937 cells) | IC50 [1] | Kd (MLKL (full length)) | DC50 (endogenous MLKL in U937)
1 | Cc1ncsc1-c1ccc(CNC(=O)[C@@H]2C[C@@H](O)CN2C(=O)[C@@H](NC(=O)CCCCOc2ccc(Nc3[nH]nc(-c4ccc(NS(=O)(=O)CC(F)(F)F)cc4)c3C(N)=O)nc2)C(C)(C)C)cc1 [Compound 1020, 5-{[5-(4-{[(2S)-1-[(2S,4R)-4-hydroxy-2-({[4-(4-methyl-1,3-thiazol-5-yl)phenyl]methyl}carbamoyl)pyrrolidin-1-yl]-3,3-dimethyl-1-oxobutan-2-yl]carbamoyl}butoxy)pyridin-2-yl]amino}-3-[4-(2,2,2-trifluoroethanesulfonamido)phenyl]-1H-pyrazole-4-carboxamide] | > 10000 nM | < 1000 nM | < 10 nM | < 1 µM
2 | Cc1ncsc1-c1ccc(CNC(=O)[C@@H]2C[C@@H](O)CN2C(=O)[C@@H](NC(=O)CCCCOc2ccc(Nc3[nH]nc(-c4ccc(NS(=O)(=O)C(F)F)cc4)c3C(N)=O)nc2)C(C)(C)C)cc1 [Compound 1021, 3-[4-(difluoromethanesulfonamido)phenyl]-5-{[5-(4-{[(2S)-1-[(2S,4R)-4-hydroxy-2-({[4-(4-methyl-1,3-thiazol-5-yl)phenyl]methyl}carbamoyl)pyrrolidin-1-yl]-3,3-dimethyl-1-oxobutan-2-yl]carbamoyl}butoxy)pyridin-2-yl]amino}-1H-pyrazole-4-carboxamide] | > 10000 nM | < 1000 nM | < 10 nM | 1 to 10 µM
3 | CCS(=O)(=O)Nc1ccc(-c2n[nH]c(Nc3cnc(OCCCCC(=O)N[C@H](C(=O)N4C[C@H](O)C[C@H]4C(=O)NCc4ccc(-c5scnc5C)cc4)C(C)(C)C)cn3)c2C(N)=O)cc1OCc1ccc(F)cc1 [Compound 1023, 3-{4-ethanesulfonamido-3-[(4-fluorophenyl)methoxy]phenyl}-5-{[5-(4-{[(2S)-1-[(2S,4R)-4-hydroxy-2-({[4-(4-methyl-1,3-thiazol-5-yl)phenyl]methyl}carbamoyl)pyrrolidin-1-yl]-3,3-dimethyl-1-oxobutan-2-yl]carbamoyl}butoxy)pyrazin-2-yl]amino}-1H-pyrazole-4-carboxamide] | > 10000 nM | < 1000 nM | < 10 nM | < 1 µM
4 | CCS(=O)(=O)Nc1ccc(-c2n[nH]c(Nc3ccc(OCCCCC(=O)N[C@H](C(=O)N4C[C@H](O)C[C@H]4C(=O)NCc4ccc(-c5scnc5C)cc4)C(C)(C)C)cn3)c2C(N)=O)cc1OCc1ccc(F)cc1 [Compound 1024, 3-{4-ethanesulfonamido-3-[(4-fluorophenyl)methoxy]phenyl}-5-{[5-(4-{[(2S)-1-[(2S,4R)-4-hydroxy-2-({[4-(4-methyl-1,3-thiazol-5-yl)phenyl]methyl}carbamoyl)pyrrolidin-1-yl]-3,3-dimethyl-1-oxobutan-2-yl]carbamoyl}butoxy)pyridin-2-yl]amino}-1H-pyrazole-4-carboxamide] | > 10000 nM | < 1000 nM | < 10 nM | < 1 µM
5 | CCS(=O)(=O)Nc1ccc(-c2n[nH]c(Nc3ccc(C(=O)OCCCCC(=O)N[C@H](C(=O)N4C[C@H](O)C[C@H]4C(=O)NCc4ccc(-c5scnc5C)cc4)C(C)(C)C)cn3)c2C(N)=O)cc1O[C@@H](C)c1ccc(F)cc1 [Compound 1039, 4-{[(2S)-1-[(2S,4R)-4-hydroxy-2-({[4-(4-methyl-1,3-thiazol-5-yl)phenyl]methyl}carbamoyl)pyrrolidin-1-yl]-3,3-dimethyl-1-oxobutan-2-yl]carbamoyl}butyl 6-[(4-carbamoyl-3-{4-ethanesulfonamido-3-[(1S)-1-(4-fluorophenyl)ethoxy]phenyl}-1H-pyrazol-5-yl)amino]pyridine-3-carboxylate] | > 10000 nM | < 1000 nM | 10 to 1000 nM | < 1 µM
6 | Cc1ncsc1-c1ccc(CNC(=O)[C@@H]2C[C@@H](O)CN2C(=O)[C@@H](NC(=O)CCCCCCn2ccc(Nc3[nH]nc(-c4ccc(NS(=O)(=O)C(F)F)c(O[C@@H](C)c5ccc(F)cc5)c4)c3C(N)=O)n2)C(C)(C)C)cc1 [Compound 1040, 3-[4-(difluoromethanesulfonamido)-3-[(1S)-1-(4-fluorophenyl)ethoxy]phenyl]-5-{[1-(6-{[(2S)-1-[(2S,4R)-4-hydroxy-2-({[4-(4-methyl-1,3-thiazol-5-yl)phenyl]methyl}carbamoyl)pyrrolidin-1-yl]-3,3-dimethyl-1-oxobutan-2-yl]carbamoyl}hexyl)-1H-pyrazol-3-yl]amino}-1H-pyrazole-4-carboxamide] | > 10000 nM | < 1000 nM | < 10 nM | 1 to 10 µM
7 | CCS(=O)(=O)Nc1ccc(-c2n[nH]c(Nc3ccc(C(=O)OCC(=O)N[C@H](C(=O)N4C[C@H](O)C[C@H]4C(=O)NCc4ccc(-c5scnc5C)cc4)C(C)(C)C)cn3)c2C(N)=O)cc1O[C@@H](C)c1ccc(F)cc1 [Compound 1041, {[(2S)-1-[(2S,4R)-4-hydroxy-2-({[4-(4-methyl-1,3-thiazol-5-yl)phenyl]methyl}carbamoyl)pyrrolidin-1-yl]-3,3-dimethyl-1-oxobutan-2-yl]carbamoyl}methyl 6-[(4-carbamoyl-3-{4-ethanesulfonamido-3-[(1S)-1-(4-fluorophenyl)ethoxy]phenyl}-1H-pyrazol-5-yl)amino]pyridine-3-carboxylate] | > 10000 nM | < 1000 nM | < 10 nM | < 1 µM
8 | Cc1ncsc1-c1ccc(CNC(=O)[C@@H]2C[C@@H](O)CN2C(=O)[C@@H](NC(=O)CCCCCCCn2ccc(Nc3[nH]nc(-c4ccc(NS(=O)(=O)C(F)F)c(O[C@@H](C)c5ccc(F)cc5)c4)c3C(N)=O)n2)C(C)(C)C)cc1 [Compound 1042, 3-[4-(difluoromethanesulfonamido)-3-[(1S)-1-(4-fluorophenyl)ethoxy]phenyl]-5-{[1-(7-{[(2S)-1-[(2S,4R)-4-hydroxy-2-({[4-(4-methyl-1,3-thiazol-5-yl)phenyl]methyl}carbamoyl)pyrrolidin-1-yl]-3,3-dimethyl-1-oxobutan-2-yl]carbamoyl}heptyl)-1H-pyrazol-3-yl]amino}-1H-pyrazole-4-carboxamide] | 1000 to 10000 nM | < 1000 nM | < 10 nM | 1 to 10 µM
9 | CCS(=O)(=O)Nc1ccc(-c2n[nH]c(Nc3ccc(C(=O)OCCCC(=O)N[C@H](C(=O)N4C[C@H](O)C[C@H]4C(=O)NCc4ccc(-c5scnc5C)cc4)C(C)(C)C)cn3)c2C(N)=O)cc1O[C@@H](C)c1ccc(F)cc1 [Compound 1043, 3-{[(2S)-1-[(2S,4R)-4-hydroxy-2-({[4-(4-methyl-1,3-thiazol-5-yl)phenyl]methyl}carbamoyl)pyrrolidin-1-yl]-3,3-dimethyl-1-oxobutan-2-yl]carbamoyl}propyl 6-[(4-carbamoyl-3-{4-ethanesulfonamido-3-[(1S)-1-(4-fluorophenyl)ethoxy]phenyl}-1H-pyrazol-5-yl)amino]pyridine-3-carboxylate] | > 10000 nM | < 1000 nM | < 10 nM | < 1 µM
